Measured values from patent publication US6410054B1, “Immediate release eplerenone compositions” (G. D. Searle & Co., priority 1998, dated 2002).

What was measured:
Format in all cases: in vivo, humans
[1] = Effect of food study: plasma pharmacokinetics fasted vs high-fat breakfast; conditions: for Plasma Concentration: 100 mg eplerenone capsule
Experimental: An open-label randomized, cross-over study was employed to evaluate the pharmacokinetic profiles of eplerenone under fasted and fed conditions, and the safety and tolerability of eplerenone. Safety was assessed based on adverse events, vital signs and clinical laboratory tests. Twelve healthy male subjects were randomized to receive a single 100 mg dose of eplerenone on days 1 and 8 under (i) fasted conditions, or (ii) immediately following a high-fat breakfast. The subjects were orally administered (dosed) a single 100 mg dose of eplerenone in the form of the capsule described in Example 7, together with approximately 200 to 240 mL of water at 0800 hours on days 1 and 8. Subjects randomized to receive a high-fat breakfast were to completely ingest the meal within 20 minutes prior to dosing. The high-fat meal contained approximately 33 g protein, 75 g fat, 58 g carbohydrates and 1000 calories. […] All adverse events were mild in severity.

[2] = ADME study of [14C]eplerenone oral solution: excretion in urine, feces, breath; conditions: 100 mg [14C]eplerenone oral solution, mean
Experimental: (§1) An open-label, single dose study was employed to evaluate the absorption, distribution, metabolism and elimination profile of a single 100 mg dose of an oral solution of eplerenone.
(§2) The study employed eight healthy male humans. Each subject received a single 100 mg oral dose of a solution of [^14C]eplerenone (specific activity 0.75 μCi/mg). Plasma, saliva, breath, urine and fecal samples were collected at predetermined intervals and analyzed for sample radioactivity and the concentration of eplerenone and its open lactone ring form. Safety was determined on the basis of laboratory tests, vital signs, and the occurrence and types of adverse events.
(§3) The subjects, who underwent an overnight food fast prior to administration of the dose, received at 0800 hours a single 100 mg oral dose of an aqueous oral solution of radiolabeled eplerenone reconstituted in 80 mL of an apple juice/hydroxypropyl-β-cyclodextrin mixture. The subjects swallowed about 200 mL of water one, two and three hours post dosing.
(§4) Blood samples were collected at −0.5 (predose), 0.5, 1, 1.5, 2, 2.5, 3, 4, 6, 8, 12, 16, 24, 36, 48, 72 and 96 hours post dose. […] Individual fecal samples were collected beginning immediately after dosing and continuing through 0800 hours on day 8. In addition, one predose fecal sample was provided. Saliva samples were taken at 0.5 hour predose and at 0.5, 1, 2, 4, 6, 12, and 24 hours postdose. Breath samples were taken at 0.5 hour predose and at 1, 2, 3, 4, 6, 8, 12, 24, 36, 48 and 72 hours postdose.

[3] = ADME study of [14C]eplerenone oral solution: plasma, whole blood, saliva pharmacokinetics; conditions: for Plasma Concentration: 100 mg oral solution of [14C]eplerenone
Experimental: as §1, §2, §3, §4

[4] = plasma, 100 mg eplerenone oral solution, single dose

COC(=O)C1CC2=CC(=O)CCC2(C)C23OC2CC2(C)C(CCC2(O)CCC(=O)O)C13 (stereo not drawn) [Open Ring Lactone]
effect of high-fat meal on AUC0-96 ([1]; 100 mg capsule, fed vs fasted): minimal or no measurable effect
effect of high-fat meal on Cmax ([1]; 100 mg capsule, fed vs fasted): reduction
effect of high-fat meal on Tmax ([1]; 100 mg capsule, fed vs fasted): increase
effect of high-fat meal on T½ ([1]; 100 mg capsule, fed vs fasted): minimal or no measurable effect
Plasma Concentration ([1]; Fasted Conditions, 0.5 hours after dosing): 69.163 ng/mL
Plasma Concentration ([1]; Fasted Conditions, 1.0 hours after dosing): 91.208 ng/mL
Plasma Concentration ([1]; Fasted Conditions, 2.0 hours after dosing): 70.600 ng/mL
Plasma Concentration ([1]; Fasted Conditions, 3.0 hours after dosing): 58.833 ng/mL
Plasma Concentration ([1]; Fasted Conditions, 4.0 hours after dosing): 45.042 ng/mL
Plasma Concentration ([1]; Fasted Conditions, 6.0 hours after dosing): 31.773 ng/mL
Plasma Concentration ([1]; Fasted Conditions, 8.0 hours after dosing): 18.708 ng/mL
Plasma Concentration ([1]; Fasted Conditions, 28.0 hours after dosing): 0 ng/mL
Plasma Concentration ([1]; Fasted Conditions, 48.0 hours after dosing): 0 ng/mL
Plasma Concentration ([1]; Fasted Conditions, 72.0 hours after dosing): 0 ng/mL
Plasma Concentration ([1]; Fasted Conditions, −0.5 hours after dosing): 0 ng/mL
Plasma Concentration ([1]; High Fat Breakfast, 0.5 hours after dosing): 2.300 ng/mL
Plasma Concentration ([1]; High Fat Breakfast, 1.0 hours after dosing): 17.392 ng/mL
Plasma Concentration ([1]; High Fat Breakfast, 2.0 hours after dosing): 36.964 ng/mL
Plasma Concentration ([1]; High Fat Breakfast, 3.0 hours after dosing): 56.742 ng/mL
Plasma Concentration ([1]; High Fat Breakfast, 4.0 hours after dosing): 66.817 ng/mL
Plasma Concentration ([1]; High Fat Breakfast, 6.0 hours after dosing): 51.675 ng/mL
Plasma Concentration ([1]; High Fat Breakfast, 8.0 hours after dosing): 30.950 ng/mL
Plasma Concentration ([1]; High Fat Breakfast, 28.0 hours after dosing): 0 ng/mL
Plasma Concentration ([1]; High Fat Breakfast, 48.0 hours after dosing): 0 ng/mL
Plasma Concentration ([1]; High Fat Breakfast, 72.0 hours after dosing): 0 ng/mL
Plasma Concentration ([1]; High Fat Breakfast, −0.5 hours after dosing): 0 ng/mL
dose excreted in feces as the named form [2]: 2.46%
dose excreted in urine as the named form [2]: 4.98%
Plasma Concentration ([3]; 0.5 hours after dosing): 63.2 ng/mL
Plasma Concentration ([3]; 1.0 hours after dosing): 78.0 ng/mL
Plasma Concentration ([3]; 1.5 hours after dosing): 70.8 ng/mL
Plasma Concentration ([3]; 2.0 hours after dosing): 59.9 ng/mL
Plasma Concentration ([3]; 2.5 hours after dosing): 51.0 ng/mL
Plasma Concentration ([3]; 3.0 hours after dosing): 46.9 ng/mL
Plasma Concentration ([3]; 4.0 hours after dosing): 41.9 ng/mL
Plasma Concentration ([3]; 6.0 hours after dosing): 23.0 ng/mL
Plasma Concentration ([3]; 8.0 hours after dosing): 13.0 ng/mL
Plasma Concentration ([3]; 48.0 hours after dosing): 0 ng/mL
Plasma Concentration ([3]; 72.0 hours after dosing): 0 ng/mL
Plasma Concentration ([3]; −0.5 hours after dosing): 0 ng/mL
AUC(0-96) [3, 4]: 352.2 (ng/mL) hr
Mean Residence Time [3, 4]: 3.4 h
Oral Clearance [3, 4]: 306.3 L/h
T1/2 [3, 4]: 3.1 h
Tmax [3, 4]: 1.1 h
